Measured values: patent publication US20220062240A1, “METHODS OF TREATING CANCER USING A CLK INHIBITOR” (BioSplice Therapeutics, Inc., priority 2018, published 2022)
Like-named read-outs stand apart in the source and are kept apart here. Values belong to the compound of their own block, whether it stands above or below them.

Legend:
CLK2 = molecular target: T1, CLK2 (Homo sapiens, UniProt P49760); assay: CLK2 kinase activity assay (Z-lyte, Ser/Thr 6 peptide); format: biochemical; settings: recombinant CLK2 kinase, ATP 60 μM; read-out: EC50
T1 construct: purchased Thermo Fisher (Life Technologies), Z'-LYTE Kinase Assay Kits
Method: All reactions were performed in duplicate.

BT-549 = assay: CellTiter-Glo Viability Assay, breast cancer; format: cell-based; settings: Homo sapiens, 96 h; BT-549, breast cancer, four days; read-out: EC50
CAMA1 = assay: CellTiter-Glo Viability Assay, breast cancer; format: cell-based; settings: Homo sapiens, CAMA-1, 96 h; CAMA1, breast cancer, four days; read-out: EC50
DU4475 = assay: CellTiter-Glo Viability Assay, breast cancer; format: cell-based; settings: Homo sapiens, DU-4475, 96 h; DU4475, breast cancer, four days; read-out: EC50
HCC1599 = assay: CellTiter-Glo Viability Assay, breast cancer; format: cell-based; settings: Homo sapiens, 96 h; HCC1599, breast cancer, four days; read-out: EC50
MCF7 = assay: CellTiter-Glo Viability Assay, breast cancer; format: cell-based; settings: Homo sapiens, 96 h; MCF7, breast cancer, four days; read-out: EC50
MDA-MB-231-Luc = assay: CellTiter-Glo Viability Assay, breast cancer; format: cell-based; settings: Homo sapiens, 96 h; MDA-MB-231-Luc, breast cancer, four days; read-out: EC50
T47D = assay: CellTiter-Glo Viability Assay, breast cancer; format: cell-based; settings: Homo sapiens, 96 h, breast cancer, four days, read-out: EC50
ZR-75-1 = assay: CellTiter-Glo Viability Assay, breast cancer; format: cell-based; settings: Homo sapiens, 96 h; ZR-75-1, breast cancer, four days; read-out: EC50
all 50 cell lines = assay: CellTiter-Glo Viability Assay, average across all cell lines; format: cell-based; settings: Homo sapiens; across all 50 cell lines; read-out: average EC50 for inhibition of cancer cell proliferation
Summary of the method: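 Cancer cell lines of several tumour types plated at 300-3,000 cells/well and exposed to compound in duplicate for four days at 37° C, 5% CO2, with DMSO-treated controls. Viability read by CellTiter-Glo luminescence (ATP content); EC50 derived from dose-response curves.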

[1] = test system: colorectal cancer (6 cell lines); assay: CellTiter-Glo Viability Assay, colorectal cancer; format: cell-based; settings: Homo sapiens, inhibition of cancer cell proliferation
[2] = test system: haematopoietic & lymphoid tumors (13 cell lines); assay: CellTiter-Glo Viability Assay, haematopoietic & lymphoid tumors; format: cell-based; settings: Homo sapiens, inhibition of cancer cell proliferation
[3] = test system: liver cancer (3 cell lines); assay: CellTiter-Glo Viability Assay, liver cancer; format: cell-based; settings: Homo sapiens, inhibition of cancer cell proliferation
[4] = test system: lung cancer (4 cell lines); assay: CellTiter-Glo Viability Assay, lung cancer; format: cell-based; settings: Homo sapiens, inhibition of cancer cell proliferation
[5] = test system: ovarian cancer (4 cell lines); assay: CellTiter-Glo Viability Assay, ovarian cancer; format: cell-based; settings: Homo sapiens, inhibition of cancer cell proliferation
[6] = test system: pancreatic cancer (8 cell lines); assay: CellTiter-Glo Viability Assay, pancreatic cancer; format: cell-based; settings: Homo sapiens, inhibition of cancer cell proliferation
[7] = test system: prostate cancer (5 cell lines); assay: CellTiter-Glo Viability Assay, prostate cancer; format: cell-based; settings: Homo sapiens
CLK3 = CLK3 (Homo sapiens, UniProt P49761); assay: CLK3 kinase activity assay (Z-lyte, Ser/Thr 18 peptide)
Method: Each compound was dissolved in DMSO as a 10 mM stock and used to prepare compound source plates.
This is a non-radioactive assay using fluorescence resonance energy transfer (FRET) between coumarin and fluorescein to detect kinase activity which is represented as a ratio of coumarin emission/fluorescein emission.
All reactions were performed in duplicate. Unphosphorylated (“0% Control”) and phosphorylated (“100% control”) forms of Ser/Thr 18 served as control reactions. Additionally, an 11-point dose-response curve of Staurosporine (1 uM top) was run to serve as a positive compound control.
After incubation, Development Reagent A was diluted in Development Buffer then added to the reaction and allowed to further incubate for one hour at room temperature.
Dose-response curves were generated and inhibitory concentration (IC50) values were calculated using non-linear regression curve fit in the Dotmatics' Studies Software (Bishops Stortford, UK).
Compounds were acoustically transferred on 1536-well plates (Echo 550, LabCyte) instrument. Kinase, peptide, and ATP reagents from the Z′-LYTE Kinase Assay Kits (Thermo Fisher) were dispensed onto the compound plates using an EL406 liquid dispenser (BioTek). Plates were incubated in the dark at room temperature for 1 hr. Development reagent was added to the plates and then incubated in the dark at room temperature for 1 hr. Fluorescence signal form the plate was then read using an EnVision Multilabel Plate Reader (Perkin Elmer).

[8] = SW480 cell line, read-out: Colorectal cancer, EC50 (μM) SW480
[9] = DND41, DND-41 cell line, read-out: Haematopoietic & Lymphoid tumors, EC50 (μM) DND-41
[10] = MV4-11, MV-4-11 cell line, read-out: Haematopoietic & Lymphoid tumors, EC50 (μM) MV-4-11
[11] = Rec1, REC-1 cell line, read-out: Haematopoietic & Lymphoid tumors, EC50 (μM) REC-1
[12] = SU-DHL-4, SUDHL4 cell line, read-out: Haematopoietic & Lymphoid tumors, EC50 (μM) SUDHL4
[13] = HL-60 cell line, read-out: Haematopoietic & Lymphoid tumors, EC50 (μM) HL-60
[14] = JM1 cell line, read-out: Haematopoietic & Lymphoid tumors, EC50 (μM) JM1
[15] = JURKAT, Clone E6-1 cell line, read-out: Haematopoietic & Lymphoid tumors, EC50 (μM) JURKAT, Clone E6-1
[16] = JeKo-1 cell line, read-out: Haematopoietic & Lymphoid tumors, EC50 (μM) JeKo-1
[17] = KASUMI-1 cell line, read-out: Haematopoietic & Lymphoid tumors, EC50 (μM) KASUMI-1
[18] = Loucy cell line, read-out: Haematopoietic & Lymphoid tumors, EC50 (μM) Loucy
[19] = MOLT-4 cell line, read-out: Haematopoietic & Lymphoid tumors, EC50 (μM) MOLT-4
[20] = TF-1 cell line, read-out: Haematopoietic & Lymphoid tumors, EC50 (μM) TF-1
[21] = TOLEDO cell line, read-out: Haematopoietic & Lymphoid tumors, EC50 (μM) TOLEDO
[22] = SNU-398, SNU398 cell line, read-out: Liver cancer, EC50 SNU398
[23] = HEPG2 cell line, read-out: Liver cancer, EC50 HEPG2
[24] = PLC/PRF/5 cell line, read-out: Liver cancer, EC50 PLC/PRF/5
[25] = A-427, A427 cell line, read-out: Lung cancer, EC50 (μM) A427
[26] = HCC78, HCC-78 cell line, read-out: Lung cancer, EC50 (μM) HCC-78
[27] = NCI-H460 cell line, read-out: Lung cancer, EC50 (μM) NCI-H460
[28] = NCI-H522 cell line, read-out: Lung cancer, EC50 (μM) NCI-H522
[29] = PA-1, PA1 cell line, read-out: Ovarian cancer, EC50 (μM) PA1
[30] = TOV112D, TOV-112D cell line, read-out: Ovarian cancer, EC50 (μM) TOV-112D
[31] = OV-90 cell line, read-out: Ovarian cancer, EC50 (μM) OV-90
[32] = OVCAR-3 cell line, read-out: Ovarian cancer, EC50 (μM) OVCAR-3
[33] = BXPC-3, BxPC3 cell line, read-out: Pancreatic cancer, EC50 BxPC3
[34] = CAPAN-1, Capan1 cell line, read-out: Pancreatic cancer, EC50 Capan1
[35] = Capan-2, Capan2 cell line, read-out: Pancreatic cancer, EC50 Capan2
[36] = MIA PaCa-2 cell line, read-out: Pancreatic cancer, EC50 MIA PaCa-2
[37] = PANC 05.04 cell line, read-out: Pancreatic cancer, EC50 PANC 05.04
[38] = PANC-1 cell line, read-out: Pancreatic cancer, EC50 PANC-1
[39] = UPAFII cell line, read-out: Pancreatic cancer, EC50 UPAFII
[40] = DU-145, read-out: Prostate cancer EC50 Du-145
[41] = PC-3, PC3 cell line, inhibition of cancer cell proliferation, read-out: Prostate cancer EC50 PC3
[42] = 22Rv1 cell line, inhibition of cancer cell proliferation, read-out: Prostate cancer EC50 22Rv1
[43] = LNCap clone FGC cell line, inhibition of cancer cell proliferation, read-out: Prostate cancer EC50 LNCap clone FGC
[44] = VCaP (Sigma) cell line, inhibition of cancer cell proliferation, read-out: Prostate cancer EC50 VCaP (Sigma)
[45] = HCT-116, HCT116 cell line, read-out: Colorectal cancer, EC50 (μM) HCT116
[46] = HT-29, HT29 cell line, read-out: Colorectal cancer, EC50 (μM) HT29
[47] = SW-620, SW620 cell line, read-out: Colorectal cancer, EC50 (μM) SW620
[48] = DLD-1 cell line, read-out: Colorectal cancer, EC50 (μM) DLD-1
[49] = SW48 cell line, read-out: Colorectal cancer, EC50 (μM) SW48

T1 sequence (P49760 whole entry): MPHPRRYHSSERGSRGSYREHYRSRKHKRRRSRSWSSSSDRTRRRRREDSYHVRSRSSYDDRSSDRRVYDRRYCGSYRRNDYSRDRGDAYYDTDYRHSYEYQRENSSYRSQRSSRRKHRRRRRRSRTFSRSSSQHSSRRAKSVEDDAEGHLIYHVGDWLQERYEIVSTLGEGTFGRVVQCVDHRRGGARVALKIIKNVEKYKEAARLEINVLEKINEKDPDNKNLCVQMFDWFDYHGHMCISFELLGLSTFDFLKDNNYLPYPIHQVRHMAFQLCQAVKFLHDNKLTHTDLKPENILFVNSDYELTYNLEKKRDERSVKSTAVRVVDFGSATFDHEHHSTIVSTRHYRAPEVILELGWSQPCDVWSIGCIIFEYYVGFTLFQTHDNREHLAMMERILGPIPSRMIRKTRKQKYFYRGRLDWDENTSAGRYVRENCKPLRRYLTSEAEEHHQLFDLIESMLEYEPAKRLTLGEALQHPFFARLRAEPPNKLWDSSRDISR
Chain of CLK3 (P49761 whole entry): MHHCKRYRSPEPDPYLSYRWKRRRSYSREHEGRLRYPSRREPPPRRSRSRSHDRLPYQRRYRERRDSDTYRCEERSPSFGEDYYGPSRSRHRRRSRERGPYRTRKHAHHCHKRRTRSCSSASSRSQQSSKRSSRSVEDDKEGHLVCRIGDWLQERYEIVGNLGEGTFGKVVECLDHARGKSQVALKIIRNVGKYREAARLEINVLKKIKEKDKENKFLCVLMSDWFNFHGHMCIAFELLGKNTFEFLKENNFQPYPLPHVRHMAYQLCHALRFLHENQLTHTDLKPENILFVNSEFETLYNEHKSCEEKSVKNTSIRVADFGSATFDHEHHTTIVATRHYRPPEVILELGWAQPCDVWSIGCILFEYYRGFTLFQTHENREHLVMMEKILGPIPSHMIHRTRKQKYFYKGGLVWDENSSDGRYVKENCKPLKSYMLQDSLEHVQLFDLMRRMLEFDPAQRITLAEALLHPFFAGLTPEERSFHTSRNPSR

EC50 (CLK2): 1.7 nM
EC50 (BT-549): 228 nM
EC50 (CAMA1): 473 nM
EC50 (DU4475): 121 nM
EC50 (HCC1599): 262 nM
EC50 (MCF7): 633 nM
EC50 (MDA-MB-231-Luc): 451 nM
EC50 (T47D): 465 nM
EC50 (ZR-75-1): 211 nM
EC50 [1, 8]: 0.123 µM
EC50 [2, 9]: 0.186 µM
EC50 [2, 10]: 0.071 µM
EC50 [2, 11]: 0.812 µM
EC50 [2, 12]: 0.138 µM
EC50 [2, 13]: 0.488 µM
EC50 [2, 14]: 0.175 µM
EC50 [2, 15]: 0.624 µM
EC50 [2, 16]: 0.14 µM
EC50 [2, 17]: 0.275 µM
EC50 [2, 18]: 0.217 µM
EC50 [2, 19]: 0.383 µM
EC50 [2, 20]: 0.92 µM
EC50 [2, 21]: 0.269 µM
EC50 [3, 22]: 59 nM
EC50 [3, 23]: 402 nM
EC50 [3, 24]: 1490 nM
EC50 [4, 25]: 0.243 µM
EC50 [4, 26]: 0.725 µM
EC50 [4, 27]: 0.759 µM
EC50 [4, 28]: 0.396 µM
EC50 [5, 29]: 0.2 µM
EC50 [5, 30]: 0.155 µM
EC50 [5, 31]: 0.179 µM
EC50 [5, 32]: 0.127 µM
EC50 [6, 33]: 365 nM
EC50 [6, 34]: 498 nM
EC50 [6, 35]: 361 nM
EC50 [6, 36]: 157 nM
EC50 [6, 37]: 427 nM
EC50 [6, 38]: 815 nM
EC50 [6, 39]: 403 nM
EC50 [7, 40]: 543 nM
EC50 [7, 41]: 294 nM
EC50 [7, 42]: 379 nM
EC50 [7, 43]: 636 nM
EC50 [7, 44]: 616 nM
EC50 (CLK3): 482 nM
SMILES: Cc1n[nH]c2ccc(-c3cncc(N[C@H]4CC[C@@H](N)CC4)n3)cc12 [Compound 64]
EC50 (all 50 cell lines): 398 nM

EC50 (CLK2): 1.9 nM
EC50 (BT-549): 272 nM
EC50 (CAMA1): 379 nM
EC50 (DU4475): 163 nM
EC50 (HCC1599): 73 nM
EC50 (MCF7): 914 nM
EC50 (MDA-MB-231-Luc): 374 nM
EC50 (T47D): 534 nM
EC50 (ZR-75-1): 467 nM
EC50 [1, 45]: 0.155 µM
EC50 [1, 46]: 0.385 µM
EC50 [1, 47]: 0.13 µM
EC50 [1, 48]: 0.241 µM
EC50 [1, 49]: 0.105 µM
EC50 [1, 8]: 0.16 µM
EC50 [3, 22]: 88 nM
EC50 [3, 23]: 383 nM
EC50 [3, 24]: 674 nM
EC50 [4, 25]: 0.29 µM
EC50 [4, 26]: 0.504 µM
EC50 [4, 27]: 0.396 µM
EC50 [4, 28]: 0.144 µM
EC50 [5, 29]: 0.325 µM
EC50 [5, 30]: 0.165 µM
EC50 [5, 31]: 0.486 µM
EC50 [5, 32]: 0.123 µM
EC50 [6, 33]: 451 nM
EC50 [6, 34]: 249 nM
EC50 [6, 35]: 555 nM
EC50 [6, 36]: 141 nM
EC50 [6, 37]: 232 nM
EC50 [6, 38]: 401 nM
EC50 [6, 39]: 203 nM
EC50 [7, 40]: 308 nM
EC50 [7, 41]: 302 nM
EC50 [7, 42]: 194 nM
EC50 [7, 43]: 526 nM
EC50 [7, 44]: 430 nM
EC50 (CLK3): 31.2 nM
SMILES: CN(C)CCOc1cc(C(=O)Nc2cc3cc(-c4cnn(C)c4)ccc3cn2)ccn1 [Compound 73]
EC50 (all 50 cell lines): 306 nM

EC50 (CLK2): 1.6 nM
EC50 (BT-549): 655 nM
EC50 (CAMA1): 561 nM
EC50 (DU4475): 381 nM
EC50 (HCC1599): 512 nM
EC50 (MCF7): 1420 nM
EC50 (MDA-MB-231-Luc): 677 nM
EC50 (T47D): 888 nM
EC50 (ZR-75-1): 711 nM
EC50 [1, 45]: 0.38 µM
EC50 [1, 46]: 0.674 µM
EC50 [1, 47]: 0.198 µM
EC50 [1, 48]: 0.499 µM
EC50 [1, 49]: 0.182 µM
EC50 [1, 8]: 0.404 µM
EC50 [2, 9]: 0.513 µM
EC50 [2, 10]: 0.099 µM
EC50 [2, 11]: 0.164 µM
EC50 [2, 12]: 0.62 µM
EC50 [2, 13]: 1.29 µM
EC50 [2, 14]: 0.177 µM
EC50 [2, 15]: 0.976 µM
EC50 [2, 16]: 0.228 µM
EC50 [2, 17]: 0.363 µM
EC50 [2, 18]: 0.522 µM
EC50 [2, 19]: 0.562 µM
EC50 [2, 20]: 0.897 µM
EC50 [2, 21]: 0.156 µM
EC50 [3, 22]: 132 nM
EC50 [3, 23]: 845 nM
EC50 [3, 24]: 1290 nM
EC50 [4, 25]: 0.672 µM
EC50 [4, 26]: 1.1 µM
EC50 [4, 27]: 0.856 µM
EC50 [4, 28]: 0.395 µM
EC50 [6, 33]: 1110 nM
EC50 [6, 34]: 627 nM
EC50 [6, 35]: 1040 nM
EC50 [6, 36]: 272 nM
EC50 [6, 37]: 818 nM
EC50 [6, 38]: 736 nM
EC50 [6, 39]: 381 nM
EC50 [7, 40]: 713 nM
EC50 [7, 41]: 674 nM
EC50 [7, 42]: 525 nM
EC50 [7, 43]: 966 nM
EC50 [7, 44]: 546 nM
EC50 (CLK3): 14.6 nM
SMILES: Cn1ncc(-c2ccc3cnc(NC(=O)c4cccc(CN5CCCC5)c4)cc3c2)c1CN1CCCCC1 [Compound 78]
EC50 (all 50 cell lines): 610 nM
